Results on ten compounds are retold here after patent US4232037A, “2,6-Dialkoxybenzamides, intermediates, pharamaceutical compositions and methods for treatment of psychotic disorders” (priority 1978, dated 1980).

The subject of series [1] is apomorphine induced stereotypies. The experiment in a line: Block of apomorphine-induced stereotypies in rats (0-3 scale scoring). The note with it: for Stereotypies ED50: rat, hydrochloride, 60 min; for ED50: Rattus norvegicus, 1 h. It counts as in vivo, Male Sprague-Dawley rats. The procedure:
Male Sprague-Dawley rats weighing 225-275 g were used. […] The compounds were injected 60 minutes prior to apomorphine hydrochloride (1 mg/kg) which was injected subcutaneously into the neck. […] Directly after injection, the animals were placed in the cages, one in each cage. Scoring of the stereotypies were performed by two separate methods. The first scoring system was a modified version of the system introduced by Costall and Naylor (1973). […] Chewing, biting and | licking. In the second system the number of animals displaying hyperactivity caused by apomorphine were scored. […] Saline controls were always run simultaneously.

Series [2] concerns apomorphine induced hyperactivity. Kind of series: Block of apomorphine-induced hyperactivity in rats (number of animals displaying hyperactivity). The note with it: for ED50: Rattus norvegicus, 1 h. Format: in vivo, Male Sprague-Dawley rats. The protocol: Male Sprague-Dawley rats weighing 225-275 g were used. […] The compounds were injected 60 minutes prior to apomorphine hydrochloride (1 mg/kg) which was injected subcutaneously into the neck.
Directly after injection, the animals were placed in the cages, one in each cage. Scoring of the stereotypies were performed by two separate methods. The first scoring system was a modified version of the system introduced by Costall and Naylor (1973). The strength of the stereotypy was scored on a 0-3 scale as follows:
In the second system the number of animals displaying hyperactivity caused by apomorphine were scored. […] Saline controls were always run simultaneously. ED50 's are in the first scoring system (0-3 scale), the doses which reduce the strength of the stereotypies by 50% over the observation period of 60 minutes. ED50 's of the second scoring system are the doses which reduce the number of animals showing hyperactivity by 50% over the observation period of 60 minutes.

The conditions of series [3]: experimental animals; cited from earlier work.
The conditions of series [4]: in vivo; cited from earlier work.
The test system of series [5] is DA receptors in the brain. The experiment in a line: Apomorphine antagonism in rats (stereotypies and hyperactivity together, results in words). To be noted: rat, p.o., Table 3. Format: in vivo, Male Sprague-Dawley rats.
The mark [6] stands for this setting: i.p., 60 min before apomorphine hydrochloride 1 mg/kg s.c., 60 min observation.
The mark [7] stands for this setting: ip, i.p., 60 min before apomorphine hydrochloride 1 mg/kg s.c., 60 min observation, read-out: Stereotypies ED50.
Where [8] appears, read: ip, i.p., 60 min before apomorphine hydrochloride 1 mg/kg s.c., 60 min observation, read-out: Hyperactivity ED50.
Setting [9] is: po, p.o., same test system, read-out: Stereotypies ED50.
Setting [10] is: po, p.o., same test system, read-out: Stereotypies ED50 (in parentheses, mg/kg).
The mark [11] stands for this setting: po, p.o., same test system, read-out: Hypractivity ED50.
Where [12] appears, read: po, p.o., same test system, read-out: Hypractivity ED50 (in parentheses, mg/kg).

Where a name gives a salt, the structure may show the parent alone. Read-outs that look alike come from different tables or passages of the source.

As to `CCN1CCCC1CNC(=O)c1c(OC)ccc(Br)c1OC.Cl` (single isomer, unassigned) [Example 14, N-Ethyl-2-(3-bromo-2,6-dimethoxybenzamidomethyl) pyrrolidine hydrochloride], the “Stereotypies ED50” value in series [1] (setting [6]) worked out at 5.6 µmol/kg.

On to `CCN1CCCC1CNC(=O)c1c(OC)c(Br)cc(Br)c1OC` (single isomer, unassigned) [Example 13, N-Ethyl-2-(3,5-dibromo-2,6-dimethoxybenzamidomethyl) pyrrolidine hydrochloride], for which the ED50 in series [1] (setting [7]) is 3.3 µmol/kg; in series [2] (setting [8]) it was 0.33 µmol/kg.

Take `CCN1CCCC1CNC(=O)c1c(OC)c(Cl)cc(Cl)c1OC` (racemic) [Example 10, N-Ethyl-2-(3,5-dichloro-2,6-dimethoxybenzamidomethyl) pyrrolidine]: the values for the ED50 in series [1] (setting [7]) and in series [2] (setting [8]) were 5.8 µmol/kg and 3 µmol/kg, respectively.

On to `CCN1CCCC1CNC(=O)c1c(OC)ccc(Br)c1OC.Cl` (racemic) [Example 7, N-Ethyl-2-(3-bromo-2,6-dimethoxybenzamidomethyl)pyrrolidine hydrochloride], for which the ED50 was 23 µmol/kg in series [1] (setting [7]); 47 µmol/kg in series [1] (setting [9]); 19 mg/kg in series [1] (setting [10]); 11 µmol/kg in series [2] (setting [8]); 17 µmol/kg in series [2] (setting [11]); 7 mg/kg in series [2] (setting [12]).

Consider `CCN1CCCC1CNC(=O)c1c(OC)c(Br)cc(Br)c1OC` (single isomer, unassigned) [Example 12, N-Ethyl-2-(3,5-dibromo-2,6-dimethoxybenzamidomethyl) pyrrolidine], for which the ED50 was above 178 µmol/kg in series [1] (setting [7]) and around 11 µmol/kg in series [2] (setting [8]).

With `CCN1CCCC1CNC(=O)c1c(OC)ccc(Br)c1OC.Cl` (single isomer, unassigned) [Example 15, N-Ethyl-2-(3-bromo-2,6-dimethoxybenzamidomethyl) pyrrolidine hydrochloride], in series [1] (setting [6]), the “Stereotypies ED50” value was above 196 µmol/kg. The “Hyperactivity ED50” value in series [2] (rat, i.p., 60 min before apomorphine hydrochloride 1 mg/kg s.c., 60 min observation, hydrochloride, 60 min) is on record as ~ 123 μmol/kg.

Take `CCN1CCCC1CNC(=O)c1c(OC)c(Br)cc(Br)c1OC.Cl` (racemic) [Example 9, N-Ethyl-2-(3,5-dibromo-2,6-dimethoxybenzamidomethyl) pyrrolidine hydrochloride]: the ED50 in series [1] (setting [7]) amounted to 5.3 µmol/kg; in series [1] (setting [9]), 8.2 µmol/kg; in series [1] (setting [10]) it was 4 mg/kg; in series [2] (setting [8]), 1.8 µmol/kg; in series [2] (setting [11]), 5.5 µmol/kg; in series [2] (setting [12]), 2.7 mg/kg.

Turning to `CCN1CCCC1CNC(=O)c1cc(S(N)(=O)=O)ccc1OC` (stereo not shown) [Sulpiride, reference compound], the catalepsy entry in series [3] was “weak catalepsy”. Besides, the ED50 was 293 µmol/kg in series [1] (setting [7]); above 586 µmol/kg in series [1] (setting [9]); above 200 mg/kg in series [1] (setting [10]); 50 µmol/kg in series [2] (setting [8]); above 586 µmol/kg in series [2] (setting [11]); above 200 mg/kg in series [2] (setting [12]). In series [4], the extrapyramidal side effects result was “weak extrapyramidal side effects”. The “activity after oral administration” value in series [5] is given as “lost all activity”.

On to `CCN1CCCC1CNC(=O)c1c(OC)c(Cl)cc(Br)c1OC` (racemic) [Example 11, N-Ethyl-2-(3-bromo-5-chloro-2,6-dimethoxybenzamidomethyl) pyrrolidine], for which the ED50 in series [1] (setting [7]) came to 6.2 µmol/kg; in series [2] (setting [8]), 3.9 µmol/kg.

With `CCN1CCCC1CNC(=O)c1c(OC)ccc(Cl)c1OC` (racemic) [Example 8, N-Ethyl-2-(3-chloro-2,6-dimethoxybenzamidomethyl)pyrrolidine hydrochloride], the figures for the ED50 in series [1] (setting [7]) and in series [2] (setting [8]) were 47 µmol/kg and 30 µmol/kg, respectively.
